Among the data in PubChem BioAssay (NCI) are TGI values, retold here.

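Grown in 96-well plates, cells were treated for 48 hours with each compound at five concentrations. Insufficient inhibition: endpoint recorded as highest concentration tested. TGI: concentration producing complete growth inhibition.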

Some test systems named below: SNB-19 CNS; OVCAR-3 ovarian; COLO 205 colon; SF-268 CNS; HT29 colon; UO-31 renal; HCT-116 colon; A549 NSCLC; OVCAR-8 ovarian; SK-MEL-2 melanoma; MCF7 breast; SNB-75 CNS; PC-3 prostate.
Common to all, as to assay: NCI tumour cell line growth inhibition, 48 h

On to `CCCN(CCC)C1=Nc2ccccc2-n2cnnc2C1`, for which the TGI in the test on SNB-19 CNS, with OVCAR-3 ovarian, in the test with COLO 205 colon, with SF-268 CNS, in the test on HT29 colon and in the test on UO-31 renal was over 100 µM in each case. For the same compound, the TGI in the test with HCT-116 colon, in the test with A549 NSCLC, in the test with OVCAR-8 ovarian and in the test on SK-MEL-2 melanoma was over 100 µM each time.
Take `Cc1csc(NNC(=O)Nc2ccccc2)n1`: the TGI in the test on SNB-19 CNS, in the test with MCF7 breast, in the test with COLO 205 colon, with SF-268 CNS, in the test with HT29 colon and with UO-31 renal was over 100 µM in each case. Also, the TGI in the test with SNB-75 CNS, in the test on HCT-116 colon, with A549 NSCLC, in the test with OVCAR-8 ovarian, in the test on PC-3 prostate and in the test on SK-MEL-2 melanoma was over 100 µM each time.
For `C=CC1(C)OC2(CCN(C(=O)OCC)CC2)OC1C` (stereo not given), the TGI in the test on SNB-19 CNS, with OVCAR-3 ovarian, in the test with MCF7 breast, with COLO 205 colon, in the test with SF-268 CNS and in the test on HT29 colon was over 100 µM each time. In addition, the TGI with UO-31 renal, in the test on SNB-75 CNS, in the test on A549 NSCLC, in the test on OVCAR-8 ovarian, in the test with PC-3 prostate and in the test on SK-MEL-2 melanoma was over 100 µM throughout.
As to `COC1/C=C/C(C)C(C(C)C(OC)C(C)CCC(=O)C(C)C(CC(=O)O)OC)OC(=O)/C=C/C=C(\C)CC(OC)CC2=CC(=O)O[C@H](C2)C(C)C(OC)CC(OC)/C=C/C(C)C(OC)C1` (stereo not given in full), the TGI with SNB-19 CNS was over 4.35 µM; in the test with OVCAR-3 ovarian, over 4.35 µM; with MCF7 breast, over 4.35 µM; with COLO 205 colon it was over 4.35 µM; with SF-268 CNS, 0.207 µM; in the test on HT29 colon it was over 4.35 µM. The TGI in the test on UO-31 renal was 1.22 µM; with SNB-75 CNS, 0.0426 µM; in the test with A549 NSCLC, over 4.35 µM; with OVCAR-8 ovarian, over 4.35 µM; in the test with PC-3 prostate it was 3.1 µM; in the test with SK-MEL-2 melanoma, over 4.35 µM.
For the compound `N#Cc1ccc(C2NN=CC23C(=O)c2ccccc2OC3c2ccccc2)cc1` (stereo not given), the TGI in the test on SNB-19 CNS is over 100 µM; with OVCAR-3 ovarian, over 100 µM; with MCF7 breast, 87.4 µM; in the test on COLO 205 colon it was 38 µM; in the test with SF-268 CNS, over 100 µM; in the test with HT29 colon, over 100 µM. Further, the TGI with UO-31 renal was 96.8 µM; in the test with HCT-116 colon, 69 µM; in the test on A549 NSCLC, over 100 µM; with OVCAR-8 ovarian, over 100 µM; in the test on PC-3 prostate, over 100 µM; in the test with SK-MEL-2 melanoma, over 100 µM.
`Cn1c(=O)c(Cl)c(N=[N+]=[N-])c2ccccc21`: the TGI in the test on SNB-19 CNS, in the test on OVCAR-3 ovarian, with MCF7 breast, in the test with COLO 205 colon, in the test with SF-268 CNS and in the test with HT29 colon was over 100 µM each time. Also, the TGI with UO-31 renal, with SNB-75 CNS, with HCT-116 colon, in the test on A549 NSCLC, in the test with OVCAR-8 ovarian and in the test with PC-3 prostate was over 100 µM in each case. Besides, in the test on SK-MEL-2 melanoma, the TGI is over 100 µM.
For the compound `Cc1ccc(-c2cc(-c3ccco3)c(C#N)c(=O)n2C2OC(CO)C(O)C(O)C2O)cc1` (stereo not given), the TGI in the test with SNB-19 CNS, in the test with OVCAR-3 ovarian, in the test with COLO 205 colon, in the test on SF-268 CNS, in the test on HT29 colon and with UO-31 renal was over 100 µM throughout. The TGI in the test with HCT-116 colon and with OVCAR-8 ovarian was over 100 µM each time.
As for `CC1=C2C3OC(=O)C(C)C3CCC2(C)C=CC1=Nc1ccccc1` (stereo not given), the TGI with SNB-19 CNS, with OVCAR-3 ovarian, in the test with MCF7 breast, in the test on COLO 205 colon, with SF-268 CNS and in the test with HT29 colon was over 100 µM throughout. The TGI with UO-31 renal, in the test with SNB-75 CNS, with HCT-116 colon, in the test with A549 NSCLC, with OVCAR-8 ovarian and in the test on SK-MEL-2 melanoma was over 100 µM throughout.
Consider `CC1=CCC2CC1NC(=O)CCOCCC(=O)NC2(C)C` (stereo not given), for which the TGI with SNB-19 CNS, in the test on MCF7 breast, in the test with COLO 205 colon, in the test with SF-268 CNS, in the test on HT29 colon and in the test with UO-31 renal was over 100 µM each time. The TGI with HCT-116 colon, with A549 NSCLC, in the test on OVCAR-8 ovarian, in the test with PC-3 prostate and in the test on SK-MEL-2 melanoma was over 100 µM each time.
As for `CCCNC(=O)N(C)C(=O)N1N=C(c2ccccc2)C1c1ccccc1` (stereo not given), the TGI in the test on SNB-19 CNS, with OVCAR-3 ovarian, with MCF7 breast, with COLO 205 colon, in the test with UO-31 renal and in the test on SNB-75 CNS was over 100 µM in each case. Further, the TGI in the test with HCT-116 colon, in the test with A549 NSCLC, in the test with OVCAR-8 ovarian, in the test on PC-3 prostate and in the test with SK-MEL-2 melanoma was over 100 µM throughout.
Turning to `CN(C(=O)c1ccc(OCCCC(=O)O)c(Cl)c1Cl)C1CCCC1`, the TGI in the test with SNB-19 CNS, in the test on OVCAR-3 ovarian, in the test on MCF7 breast, in the test on COLO 205 colon, in the test with SF-268 CNS and in the test on HT29 colon was over 100 µM in each case. For the same compound, the TGI in the test on UO-31 renal, in the test with SNB-75 CNS, in the test on HCT-116 colon, with A549 NSCLC, with OVCAR-8 ovarian and in the test on SK-MEL-2 melanoma was over 100 µM in each case.
As to `O=C(C/C=C/c1ccccc1)c1ccccc1`, the TGI with OVCAR-3 ovarian is over 100 µM; with MCF7 breast it was 32.7 µM; in the test with COLO 205 colon, 56.6 µM; in the test on SF-268 CNS it was 56.8 µM; in the test on HT29 colon it was 65.5 µM; with UO-31 renal it was 28.2 µM. Further, the TGI with SNB-75 CNS worked out at 69.2 µM; with HCT-116 colon, 33.1 µM; with A549 NSCLC, 26 µM; in the test on OVCAR-8 ovarian, 49.1 µM.
